Test results published in US20100286186A1, “NOVEL DICARBOXYLIC ACID LINKED AMINO ACID AND PEPTIDE PRODRUGS OF OPIOIDS AND USES THEREOF” (Shire LLC, priority 2009, published 2010).
Where “and” joins values, the source holds several entries; their conditions need not be identical. Equal entries are not always repeated.

How the values were obtained:
[1] = Plasma pharmacokinetics of meptazinol dicarboxylate linked prodrugs after oral gavage to dogs; format: in vivo, dog; conditions: dog, 1 mg meptazinol base equivalents/kg; for Dog Cmax (plasma meptazinol) / Dog Cmax (plasma prodrug levels, in brackets): oral gavage of prodrug; for Dog Cmax (plasma meptazinol): meptazinol level; for Dog Cmax (plasma prodrug levels, in brackets): prodrug level, BLQ = below 0.5 ng/mL
[2] = Plasma pharmacokinetics of meptazinol dicarboxylate linked prodrugs after oral gavage to cynomolgus monkeys; format: in vivo, cynomolgus monkey; conditions: 1 mg meptazinol base equivalents/kg; for Monkey Cmax (plasma meptazinol) / Monkey Cmax (plasma prodrug levels, in brackets): cynomolgus monkey, oral gavage of prodrug; for Monkey Cmax (plasma meptazinol): meptazinol level; for Monkey Cmax (plasma prodrug levels, in brackets): prodrug level, BLQ = below 0.5 ng/mL
[3] = Stability of meptazinol dicarboxylate bridged amino acid prodrugs in simulated gastric and intestinal juice and pH 7.4 buffer; format: physicochemical; conditions: for 2 h stability in pH7.4 buffer (37° C.), Conversion to meptazinol: pH 7.4 buffer
From the text: Initially the inherent chemical and biological stability of various dicarboxylate bridged amino acid prodrugs of meptazinol, was investigated under the conditions prevailing in the GI tract. Premature hydrolysis of the prodrug in the gut lumen prior to absorption would reduce the opportunity for transient protection of the drug during its passage though the liver and the desired reduction in first pass metabolism.
The remaining concentrations of the prodrug (and also drug released) were then assayed by HPLC. Additionally their chemical stability was evaluated in pH 7.4 buffer for 2 h 37° C.

[4] = Comparative pharmacokinetics of oxycodone in the cynomolgus monkey after oral administration; conditions: for T>50%Cmax of oxycodone: oral
gut motility in the rat = test: Charcoal propulsion test of GI motility in the rat; format: in vivo; conditions: oral; for delay of the passage of the charcoal meal (gut motility): 30 mg/kg or equimolar dose
Description: Test treatments were administered to groups of up to 10 rats fasted overnight prior to the test.
Test treatments were administered orally 60 minutes prior to a 2.0 mL oral dose of a 10% suspension of charcoal in 5% gum arabic. Thirty minutes after dosing with charcoal, the rats were sacrificed and the entire gastro-intestinal tract quickly and carefully removed. The distance the charcoal meal had traveled from the pyloric sphincter toward the caecum was measured and expressed as a percentage of both the total gut length and the length of the small intestine.

[5] = Comparative pharmacokinetics of oxycodone after oral administration to female Sprague Dawley rats; conditions: oral, 10 mg oxycodone free base equivalents/kg, median
[6] = Comparative oral bioavailability of oxycodone from various dicarboxylate bridged amino acid prodrugs in dogs (nine-way crossover); format: in vivo, dog; conditions: 1 mg/kg oxycodone free base, mean (±sd)
[7] = In vitro stability of dicarboxylate amino acid ester prodrugs in simulated gastric and intestinal juice, distilled water and pH 10 buffer (HPLC); conditions: 37° C.
[8] = Bioavailability of oxycodone, codeine and dihydrocodeine from their succinyl valine ester prodrugs in the dog (oral gavage, two-way crossover); conditions: dogs, oral gavage, 1 mg free base equivalents codeine/kg; median (n=5)
Description: The characteristics of the test animals are set out in Table 10, below.
Blood samples were taken at various times after administration and submitted to analysis for the parent drug and pro-drug using a validated LC-MS-MS assay. Pharmacokinetic parameters derived from the plasma analytical data were determined using Win Nonlin.

[9] = simulated intestinal fluid, 2 h
[10] = male cynomolgus monkeys, 1 mg oxycodone free base equivalents/kg, mean (n=5)

| SMILES | Dog Cmax (plasma meptazinol) [1] [ng/mL] | Dog Cmax (plasma prodrug levels, in brackets) [1] [ng/mL] | Monkey Cmax (plasma meptazinol) [2] [ng/mL] | Monkey Cmax (plasma prodrug levels, in brackets) [2] | 2 h stability in pH7.4 buffer (37° C.), Conversion to meptazinol ([3]; 2 h) [%] | 1 h stability in simulated gastric fluid (37° C.), Conversion to meptazinol [3] [%] | 2 h stability in simulated intestinal fluid (37° C.), Conversion to meptazinol [3, 9] [%] | T>50%Cmax of oxycodone [4, 10] [h] | delay of the passage of the charcoal meal (gut motility) (gut motility in the rat) | other results |
| --- | --- | --- | --- | --- | --- | --- | --- | --- | --- | --- |
| CCC1(c2cccc(OC(=O)CC(C)(C)CC(=O)NCC(=O)O)c2)CCCCN(C)C1 (stereo not drawn) [Meptazinol-[3,3-dimethylglutaryl-glycine] ester] | 0.5 | 29 | 1.1 | 18 ng/mL | 2 | 4 | 4 |  |  |  |
| CCC1(c2cccc(OC(=O)CCC(=O)N3CCC[C@H]3C(=O)O)c2)CCCCN(C)C1 (stereo partly drawn) [Meptazinol-[succinyl-(S)-proline] ester] | 0.7 | 36 | 2.0 | 16 ng/mL | 4 | 4 | 4 |  |  |  |
| COc1ccc2c3c1O[C@H]1C(=O)CC[C@@]4(O)[C@@H](C2)N(C)CC[C@]314 [Oxycodone, oxycodone, reference compound] |  |  |  |  |  |  |  | 1.8 | 52% | % change from vehicle-treated animals, small intestine (gut motility in the rat; 10 mg/kg): −15.6%; % change from vehicle-treated animals, total gut length (gut motility in the rat; 10 mg/kg): −16.0%; % change from vehicle-treated animals, small intestine (gut motility in the rat; 30 mg/kg): −52.2%; % change from vehicle-treated animals, total gut length (gut motility in the rat; 30 mg/kg): −52.2%; % change from vehicle-treated animals, small intestine (gut motility in the rat; 100 mg/kg): −75.5%; % change from vehicle-treated animals, total gut length (gut motility in the rat; 100 mg/kg): −76.5%; T>50%Cmax of oxycodone [5]: 0.75 h |
| COc1ccc2c3c1O[C@H]1C(OC(=O)CCCC(=O)N[C@@H](CC(C)C)C(=O)O)=CC[C@@]4(O)[C@@H](C2)N(C)CC[C@]314 [Oxycodone-Glutaryl-Leu Enol Ester, oxycodone-[glutaryl-(S)-leucine] enol ester] |  |  |  |  |  |  |  | 2.86 |  | T50% Cmax of oxycodone [6]: 3.4 (±0.7) h.; Simulated gastric fluid (pH 1.1): % remaining after 2 h/37° C. ([7]; pH 1.1, 2 h): 98%; Simulated intestinal fluid (pH 6.8): % remaining after 2 h/37° C. ([7]; pH 6.8, 2 h): 79%; Cmax of intact prodrug ([4]; male cynomolgus monkeys, oral prodrug, 1 mg oxycodone free base equivalents/kg, individual monkeys 1-5): BLQ; T>50%Cmax of oxycodone ([4]; male cynomolgus monkeys, 1 mg oxycodone free base equivalents/kg, individual monkeys 1-5): 2.33 h and 2.40 h and 3.13 h and 4.66 h and 1.80 h; T>50%Cmax of oxycodone ([4]; male cynomolgus monkeys, 1 mg oxycodone free base equivalents/kg, mean (n=5), listed as OGLE): 2.9 h; prodrug levels in plasma ([4]; monkeys, oral prodrug): below the limit of quantification |
| COc1ccc2c3c1O[C@H]1[C@@H](O)C=C[C@H]4[C@@H](C2)N(C)CC[C@@]341 [codeine, reference compound] |  |  |  |  |  |  |  |  | greater than 30% | T>50%Cmax of codeine [8]: 1.2 h |
| CCC1(c2cccc(OC(=O)c3ccccc3C(=O)N[C@@H](Cc3ccccc3)C(=O)O)c2)CCCCN(C)C1.O=C(O)C(F)(F)F (stereo partly drawn) [meptazinol [phthalyl-(S)-phenylalanine]ester trifluoroacetate] | 9.1 | 71 |  | BLQ | 72 | 3 | 30 |  |  | systemic levels of meptazinol versus expected Cmax after the drug itself ([1]; oral gavage): improved systemic levels of meptazinol; improvement in systemic levels of meptazinol ([2]; monkey, oral gavage): not seen in the monkey; degradation in 2 h in simulated intestinal fluid ([3]; simulated intestinal fluid, 2 h, 37° C.): ~30% |
